The test system of assay [1] is ubiquinone binding site of complex I (IQ). The experiment in a line: High-throughput screen: ROS production from ubiquinone binding site of complex I (IQ), isolated skeletal muscle mitochondria. In kind it is biochemical, rat. The following applies: for IQ: percent change in ROS from DMSO controls.
Assay [2] concerns the target T1, flavin binding site of complex I (IF) (Rattus norvegicus, UniProt Q5XIH3).
T1 construct: freshly isolated muscle mitochondria were assayed; from tissue; host or cells: rat skeletal muscle mitochondria (Wistar, Harlan Laboratories)
As to the kind of experiment: High-throughput screen: ROS production from flavin binding site of complex I (IF). In kind it is biochemical.

In assay [3] the target is T2, outer ubiquinone binding site of complex III (IIIQO) (Rattus norvegicus, UniProt P00159+P20788).
T2 construct: freshly isolated muscle mitochondria were assayed; from tissue; host or cells: rat skeletal muscle mitochondria (Wistar, Harlan Laboratories)
The experiment in a line: High-throughput screen: ROS production from outer ubiquinone binding site of complex III (IIIQO). In kind it is biochemical.
Method: Skeletal muscle mitochondria were isolated from 5-8 week old female Wistar rats (Harlan Laboratories). Minced muscle was homogenized in buffer containing bacterial protease Type VIII prior to differential centrifugation to separate mitochondria from other tissue components. Unless otherwise stated, freshly isolated muscle mitochondria were assayed in buffer containing 120 mM KCl, 5 mM HEPES, 1 mM EGTA, 0.3% (w/v) bovine serum albumin. Where indicated, CaCl2 was added to yield a final free concentration of 250 nM calcium at pH 7.0 at 37° C.
Compounds (10 mM in DMSO) were randomly selected from a library of 24,000 compounds obtained from ChemBridge and curated by the lab of Robert Hughes at the Buck Institute. Master screening plates were prepared using a Biomek FX liquid handling workstation (Beckman) to transfer 1 μL of each compound into individual wells on 96-well storage plates (80 compounds per plate). Master plates were sealed with foil and stored at −80° C. Just prior to use, plates were brought to room temperature and diluted 300-fold with standard buffer (13.3X=33.3 μM). To monitor the performance of each assay throughout screening and to provide intra-plate normalization reference points, DMSO negative controls and known mitochondrial inhibitor positive controls were included on each Master compound plate.
Total amounts of superoxide and H2O2 production were determined fluorometrically as H2O2, without distinguishing between them, in the presence of exogenous superoxide dismutase (25 units/mL final), horseradish peroxidase (1 unit/mL final), and Amplex UltraRed (25 μM final) as described (Affourtit, C. et al. (2012) Measurement of proton leak and electron leak in isolated mitochondria. Methods Mol. Biol. 810: 165-82). Just prior to use, a bulk 3.3X solution was made in standard buffer and distributed into a 2 mL deep well 96-well transfer plate.
To assess the effects of a compound on ROS production from the outer ubiquinone binding site of complex III (IIIQO), Start Solution containing 5 mM succinate, 4 μM rotenone and 2.5 μM antimycin A was distributed into standard 96-well transfer plates. A Biomek FX workstation was programmed to dispense solutions into black 96-well assay plates. Solutions were dispensed to all assay plates in the following order: ROS Detection solution described in Example 3, Mitochondria solution described in Example 1 to a final concentration of 0.1 mg/ml, and Compound dilutions described in Example 2. Duplicate assay plates were made and each was initiated by the addition of 3.3X Start solution containing 5 mM succinate, 4 μM rotenone and 2.5 μM antimycin A. Plates were incubated in the dark at room temperature for 30-40 minutes before acquiring endpoint fluorescence using a Victor 3V plate reader (Perkin Elmer) equipped with 550/590 nm excitation/emission filters.
The fluorescence values in each well were scaled as the percent change from the intra-plate DMSO controls with the appropriate inhibitor positive controls defined as −100%. Following initial scaling, intra-plate normalized values were subjected to Tukey's two-way median polish to remove row and column dependent positional effects (Malo et al., 2006).

Assay [4] deals with T3, succinate dehydrogenase/complex II (SDH) (Rattus norvegicus, UniProt P21913+Q641Z9+Q6PCT8+Q920L2).
T3 construct: freshly isolated muscle mitochondria were assayed; from tissue; host or cells: rat skeletal muscle mitochondria (Wistar, Harlan Laboratories)
T3 sequence (Q920L2 35-656): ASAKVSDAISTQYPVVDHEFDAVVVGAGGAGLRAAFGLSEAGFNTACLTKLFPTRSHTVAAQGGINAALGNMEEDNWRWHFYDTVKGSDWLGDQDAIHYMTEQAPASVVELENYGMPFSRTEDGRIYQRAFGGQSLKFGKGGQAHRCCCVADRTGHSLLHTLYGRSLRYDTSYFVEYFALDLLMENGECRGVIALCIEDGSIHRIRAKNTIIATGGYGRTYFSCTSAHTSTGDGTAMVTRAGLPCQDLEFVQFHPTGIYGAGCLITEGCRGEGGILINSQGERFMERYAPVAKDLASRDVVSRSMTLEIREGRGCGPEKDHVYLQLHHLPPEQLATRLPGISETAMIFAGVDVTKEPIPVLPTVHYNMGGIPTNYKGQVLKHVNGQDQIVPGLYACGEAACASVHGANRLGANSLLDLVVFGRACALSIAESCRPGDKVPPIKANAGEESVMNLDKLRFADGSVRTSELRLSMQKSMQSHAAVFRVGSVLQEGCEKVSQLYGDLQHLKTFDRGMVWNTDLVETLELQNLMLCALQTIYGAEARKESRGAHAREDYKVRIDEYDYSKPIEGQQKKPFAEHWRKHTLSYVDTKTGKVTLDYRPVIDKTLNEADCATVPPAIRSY
T3 sequence (P21913 31-282): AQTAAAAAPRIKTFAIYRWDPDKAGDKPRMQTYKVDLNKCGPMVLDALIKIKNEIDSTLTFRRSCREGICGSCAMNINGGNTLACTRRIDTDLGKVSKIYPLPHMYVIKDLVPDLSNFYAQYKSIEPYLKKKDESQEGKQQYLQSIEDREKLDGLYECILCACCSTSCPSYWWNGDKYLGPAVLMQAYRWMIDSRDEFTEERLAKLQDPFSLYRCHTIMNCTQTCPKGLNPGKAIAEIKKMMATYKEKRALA
T3 sequence (Q641Z9 30-169 limits assumed): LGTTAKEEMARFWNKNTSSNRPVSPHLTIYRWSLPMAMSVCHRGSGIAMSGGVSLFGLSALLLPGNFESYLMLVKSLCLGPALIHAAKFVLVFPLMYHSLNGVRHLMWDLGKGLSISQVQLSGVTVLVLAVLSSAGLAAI
T3 sequence (Q6PCT8 57-159): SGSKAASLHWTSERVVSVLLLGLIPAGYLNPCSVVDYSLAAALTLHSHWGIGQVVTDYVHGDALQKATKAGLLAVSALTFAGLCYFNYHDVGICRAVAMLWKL
The experiment in a line: High-throughput screen: ROS production from succinate dehydrogenase/complex II (SDH). In kind it is biochemical. The conditions noted are these: percent change in ROS from DMSO controls.

Assay [5] addresses T4, glycerol-3-phosphate dehydrogenase (GPDH) (Rattus norvegicus, UniProt P35571).
T4 construct: The activity of GPDH in intact mitochondria (0.3 mg/mL) was measured; from tissue; host or cells: rat skeletal muscle mitochondria (Wistar, Harlan Laboratories)
T4 sequence (P35571 43-727): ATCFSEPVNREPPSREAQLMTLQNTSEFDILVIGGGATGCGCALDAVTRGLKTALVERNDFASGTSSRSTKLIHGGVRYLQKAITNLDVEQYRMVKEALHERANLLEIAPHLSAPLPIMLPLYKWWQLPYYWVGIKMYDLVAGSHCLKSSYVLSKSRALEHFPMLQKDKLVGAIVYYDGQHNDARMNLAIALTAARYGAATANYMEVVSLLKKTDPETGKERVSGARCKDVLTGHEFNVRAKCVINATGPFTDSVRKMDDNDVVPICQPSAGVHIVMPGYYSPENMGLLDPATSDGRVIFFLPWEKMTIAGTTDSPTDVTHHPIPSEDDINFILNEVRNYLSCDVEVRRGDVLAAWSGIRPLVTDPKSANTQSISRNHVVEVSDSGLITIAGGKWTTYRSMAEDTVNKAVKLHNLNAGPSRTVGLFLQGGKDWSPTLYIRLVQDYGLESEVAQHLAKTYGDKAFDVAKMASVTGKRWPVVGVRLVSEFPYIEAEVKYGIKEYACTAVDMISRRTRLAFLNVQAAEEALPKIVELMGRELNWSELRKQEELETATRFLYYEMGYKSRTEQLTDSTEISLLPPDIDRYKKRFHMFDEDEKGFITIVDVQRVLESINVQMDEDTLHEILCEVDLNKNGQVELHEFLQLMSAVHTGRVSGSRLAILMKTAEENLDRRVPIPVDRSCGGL
The experiment in a line: High-throughput screen: ROS production from glycerol-3-phosphate dehydrogenase (GPDH). In kind it is biochemical. On the set-up: inhibition: dose or concentration left out as unconfirmed. The following applies: for GPDH / inhibition: percent change in ROS from DMSO controls; for inhibition at 2.5 µM: Table 6, 25 mM glycerol phosphate, rotenone, antimycin A, malonate, myxothiazol, compounds 2.5 μM, scaled to IQ positive controls, read-out: % Reduction in ROS Production (GPDH).

The subject of assay [6] is mitochondrial membrane potential (ΔΨm). The experiment in a line: Membrane potential (ΔΨm) counterscreen with TMRM. The conditions noted are these: malate, nigericin.
For assay [7] the test system is unchanged. As to the kind of experiment: Retest ΔΨm assays (different substrates, with and without nigericin). In kind it is biochemical, rat. The following applies: various substrates. The method, then:
The five core ROS assays and single ΔΨm assay were carried out as in the initial high-throughput screen. In addition, several assays were included to help validate the specificity of the compounds for a given site of production. […] The use of different substrates was designed to reveal compounds that disrupt mitochondrial function in a substrate specific manner. […] Most frequently, these changes involved the use of different substrates to supply electrons from an alternative entry point in the chain. If a site of ROS production is being targeted selectively by a compound, then in many cases the supply of electrons should not influence the effectiveness of this compound at suppressing ROS production. […] Candidate compounds that remained site-selective following robotics assisted retesting were subsequently tested for effects on ROS production and ΔΨm with a Varian Cary Eclipse fluorimeter (excitation 550 nm, emission at 590 nm). This experimental format allows kinetic measurements of ROS production and ΔΨm with more accurate temperature control, sample stirring, and background correction. […] Conditions were generally as described for the various microplate assays with the following exceptions: HRP was increased to 5 units/mL, Amplex UltraRed was increased to 50 μM, temperature was always 37° C., samples were continuously stirred, and baseline rates of fluorescence change in the absence of substrate were acquired prior to their addition. Example protocols for cuvette based measurement of site IQ and site IIIQo ROS production are described in Affourtit et al., 2012. […] Biochim. Biophys. Acta. 1777(5): 397-403. An additional advantage of the kinetic cuvette based assays was the ability to perform inline additions to monitor the relative effect of a test compound against multiple conditions in the same cuvette. Therefore, the selectivity of a compound for one site of ROS production can be monitored by adding substrates and select known inhibitors in defined sequences to alternately provide and trap electrons at various sites in the chain. […]

Where [8] appears, read: Table 7, percent change in ROS from DMSO controls.
[9] abbreviates: Table 8, percent change in ROS from DMSO controls.
Where [10] appears, read: Table 9, percent change in ROS from DMSO controls.
Setting [11] is: Table 3, 5 mM glutamate, 5 mM malate, 4 μM rotenone, compounds 2.5 μM, percent change from DMSO, positive control −100%, read-out: % Reduction in ROS production (IF).
[12] abbreviates: Table 7, percent change in ROS from DMSO controls, read-out: IF.
The mark [13] stands for this setting: Table 7, percent change in ROS from DMSO controls, read-out: IIIQO.
[14] abbreviates: Table 9, percent change in ROS from DMSO controls, read-out: IIIQo.

Experimental findings from patent US20140128352A1, “COMPOUNDS AND METHODS FOR MODULATING MITOCHONDRIAL METABOLISM AND REACTIVE OXYGEN SPECIES PRODUCTION” (Buck Institute for Research on Aging, priority 2012, published 2014) are described below.

SMILES strings stand for the structures. Where two headings read alike, the source gives them in different places.

T1 sequence (Q5XIH3 21-464 limits assumed, one chain of several): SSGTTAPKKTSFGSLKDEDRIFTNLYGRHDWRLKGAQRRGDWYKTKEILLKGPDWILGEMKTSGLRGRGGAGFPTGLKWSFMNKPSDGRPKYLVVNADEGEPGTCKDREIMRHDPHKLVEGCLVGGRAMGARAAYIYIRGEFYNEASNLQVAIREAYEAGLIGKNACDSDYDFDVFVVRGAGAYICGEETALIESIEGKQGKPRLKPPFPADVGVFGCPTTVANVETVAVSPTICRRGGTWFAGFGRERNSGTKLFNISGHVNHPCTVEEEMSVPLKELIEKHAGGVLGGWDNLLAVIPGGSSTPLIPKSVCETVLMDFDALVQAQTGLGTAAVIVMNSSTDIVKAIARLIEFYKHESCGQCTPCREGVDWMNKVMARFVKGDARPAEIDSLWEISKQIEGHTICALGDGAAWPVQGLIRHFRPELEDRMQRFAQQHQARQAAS

Take `O=[N+]([O-])c1ccc(Oc2ccc(S(=O)(=O)NC3CCCCC3)cc2)cc1` [Compound 4]: the “% Reduction in ROS production (IQ)” value in assay [1] (Table 2, 5 mM succinate, compounds 2.5 μM, percent change from DMSO, positive control −100%) is recorded as −47.9%. Also, the IQ in assay [1] (Table 7), in assay [1] (Table 8) and in assay [1] (Table 9) was −47.9 each time. The IF in assay [2] (setting [8]), in assay [2] (setting [9]) and in assay [2] (setting [10]) was 3.1 throughout. Moreover, the IIIQO in assay [3] (setting [8]), in assay [3] (setting [9]) and in assay [3] (setting [10]) was −0.3 in each case. In addition, the SDH in assay [4] (Table 7), in assay [4] (Table 8) and in assay [4] (Table 9) was 0.8 throughout. Further, the GPDH in assay [5] (Table 7), in assay [5] (Table 8) and in assay [5] (Table 9) was 2.8 each time. Further, the ΔΨm in assay [6] (Table 8, glutamate) is recorded as −0.9; in assay [6] (Table 9, glutamate), −0.9.

Consider `O=C(O)C1CCCCC1C(=O)NC1CCCCC1` (centres unmarked) [Compound 19], for which the IQ in assay [1] (Table 7), in assay [1] (Table 8) and in assay [1] (Table 9) was 0.0 in each case. The inhibition at 2.5 µM in assay [2] (setting [11]) is 25.6%; in assay [2] (setting [12]), 25.6%; in assay [3] (setting [13]) it was -1.2%; in assay [3] (setting [14]) it was -1.2%. The IF in assay [2] (setting [9]) and in assay [2] (setting [10]) was −25.6 each time. This compound also displayed an IIIQO in assay [3] (setting [9]) of 1.2. Moreover, in assay [5] (Table 7), the inhibition turned out to be 1%. The GPDH in assay [5] (Table 8) and in assay [5] (Table 9) was −1.0 each time. In addition, the ΔΨm in assay [6] (Table 8, glutamate) is on record as −1.4; in assay [6] (Table 9, glutamate) it was −1.4.

In the case of `COc1cc(CN(CCN(C)C)Cc2ccccc2)cc(OC)c1` [Compound 31], the IQ in assay [1] (Table 7), in assay [1] (Table 8) and in assay [1] (Table 9) was −1.4 throughout. Besides, the inhibition at 2.5 µM in assay [2] (setting [11]) worked out at 7.6%; in assay [2] (setting [12]), 7.6%; in assay [3] (setting [13]), 1.4%; in assay [3] (setting [14]), 1.4%; in assay [4] (Table 7), 6%. Further, the IF in assay [2] (setting [9]) and in assay [2] (setting [10]) was −7.6 throughout. The compound further yielded an IIIQO in assay [3] (setting [9]) of −1.4. Moreover, the SDH in assay [4] (Table 8) and in assay [4] (Table 9) was −6.0 each time. The inhibition in assay [5] (Table 7) was -0.5%. Further, the GPDH in assay [5] (Table 8) and in assay [5] (Table 9) was 0.5 in each case. In addition, the ΔΨm in assay [6] (Table 8, glutamate) was found to be 0.3; in assay [6] (Table 9, glutamate) it was 0.3.

In the case of `Cc1ccc(C)c(CN(CCCN(C)C)CCCN(C)C)c1` [Compound 32], the IQ in assay [1] (Table 7), in assay [1] (Table 8) and in assay [1] (Table 9) was −0.6 in each case. In addition, the inhibition at 2.5 µM in assay [2] (setting [11]) was 28.8%; in assay [2] (setting [12]), 28.8%; in assay [3] (setting [13]) it was -2.5%; in assay [3] (setting [14]) it was -2.5%; in assay [4] (Table 7), 6.8%. The IF in assay [2] (setting [9]) and in assay [2] (setting [10]) was −28.8 each time. This compound came in with an IIIQO in assay [3] (setting [9]) of 2.5. In addition, the SDH in assay [4] (Table 8) and in assay [4] (Table 9) was −6.8 each time. Also, the inhibition in assay [5] (Table 7) is -0.2%. Further, the GPDH in assay [5] (Table 8) and in assay [5] (Table 9) was 0.2 in each case. For the same compound, the “effect on ΔΨm” value in assay [7] is on record as “without any significant effects on membrane potential”. Also, the ΔΨm in assay [6] (Table 8, glutamate) is given as −0.2; in assay [6] (Table 9, glutamate), −0.2.

As to `CC1=CC(C)(C)N(Cc2ccc([N+](=O)[O-])cc2)c2ccccc21` [Compound 37], the IQ in assay [1] (Table 7), in assay [1] (Table 8) and in assay [1] (Table 9) was 0.3 throughout. Also, the inhibition at 2.5 µM in assay [2] (setting [12]) was -0.6%; in assay [3] (Table 4, 5 mM succinate, 4 μM rotenone, 2.5 μM antimycin A, compounds 2.5 μM, percent change from DMSO, read-out: % Reduction in ROS production (IIIQO)), 32.1%; in assay [3] (setting [13]) it was 32.1%; in assay [3] (setting [14]), 32.1%; in assay [4] (Table 7), -1.2%. Also, the IF in assay [2] (setting [9]) and in assay [2] (setting [10]) was 0.6 throughout. Further, the IIIQO in assay [3] (setting [9]) is −32.1. In addition, the SDH in assay [4] (Table 8) and in assay [4] (Table 9) was 1.2 throughout. Besides, in assay [5] (Table 7), the inhibition worked out at 0.6%. Besides, the GPDH in assay [5] (Table 8) and in assay [5] (Table 9) was −0.6 each time. The ΔΨm is given as 1.5 in assay [6] (Table 8, glutamate) and 1.5 in assay [6] (Table 9, glutamate).

Consider `O=C(O)CSc1cccc(C(=O)Nc2ccc(Br)cc2)c1` [Compound 47], for which the IQ in assay [1] (Table 7), in assay [1] (Table 8) and in assay [1] (Table 9) was −0.1 in each case. Also, the inhibition at 2.5 µM in assay [2] (setting [12]) was 0.5%; in assay [3] (setting [13]), 0%; in assay [3] (setting [14]), 0%; in assay [4] (Table 7), -1.3%; in assay [5], 14.1%. The IF in assay [2] (setting [9]) and in assay [2] (setting [10]) was −0.5 throughout. Moreover, the IIIQO in assay [3] (setting [9]) stood at 0.0. Also, the SDH in assay [4] (Table 8) and in assay [4] (Table 9) was 1.3 in each case. The inhibition in assay [5] (Table 7) is 14.1%. Also, the GPDH in assay [5] (Table 8) and in assay [5] (Table 9) was −14.1 in each case. Moreover, the ΔΨm was found to be 0.0 in assay [6] (Table 8, glutamate) and 0.0 in assay [6] (Table 9, glutamate).

In turn, `O=C(O)CCC(=O)Nc1ccc(-c2nc3cc4ccccc4cc3[nH]2)cc1` [Compound 61] came in with an IQ in assay [1] (Table 7) of −17.1. Besides, the inhibition at 2.5 µM in assay [2] (setting [12]) is 4.8%; in assay [3] (setting [13]) it was 2.4%; in assay [4] (Table 7) it was 4.5%; in assay [5] it was 48.3%. Further, the inhibition in assay [5] (Table 7) was 3.8%. Also, the “effect on ΔΨm” value in assay [7] is “increased off-target effect on ΔΨm in the absence of nigericin”.
